# In paper PMC6131539, “Behavioral Effects of a Potential Novel TAAR1 Antagonist” (Frontiers in Pharmacology, 2018):
# Key:
# [1] = tested on: AMPA; experiment: PDSP binding, primary screen; design: species or system human; settings: 10 μM
# Description: (§1) This was achieved through the identification of potential pharmacological targets of compound 22 using the Psychoactive Drug Screening Program (PDSP) at University of North Carolina-Chapel-Hill. PDSP provides a platform for screening novel psychoactive compounds on human proteins expressed in the central nervous system in order to identify their biological target(s) ([Besnard et al., 2012]). Binding studies were done on 47 targets at a single dose of compound 22 (10 μM; Supplementary Table S1). This primary screen yielded a total of 5 hits for compound 22 (Table 2). These hits were the serotonin, dopamine, and norepinephrine transporters, as well as the sigma 1 and sigma 2 receptors.
# (§2) Supplemental Table 1. Compound 22 binding studies from PDSP: primary screen for compound 22 and subsequent hits (50% cut-off, hits highlighted in red). The primary screen was performed by PDSP as described previously (Besnard et al., 2012).
# [2] = tested on: Sigma 2; experiment: PDSP binding, primary screen; design: species or system human; settings: 10 μM
# Description: as §1, §2
# [3] = tested on: BZP site; experiment: PDSP binding, primary screen; design: species or system human; settings: 10 μM
# Description: as §1, §2
# [4] = tested on: GABAA; experiment: PDSP binding, primary screen; design: species or system human; settings: 10 μM
# Description: as §1, §2
# [5] = tested on: NMDA; experiment: PDSP binding, primary screen; design: species or system human; settings: 10 μM
# Description: as §1, §2
# [6] = tested on: PBR; experiment: PDSP binding, primary screen; design: species or system human; settings: 10 μM
# Description: as §1, §2
# [7] = biological target: T1, 5-HT3 (Homo sapiens, UniProt P46098); experiment: PDSP binding, primary screen
# T1 construct: purchased NIMH Psychoactive Drug Screening Program (PDSP), University of North Carolina-Chapel Hill
# Description: as §1, §2
# [8] = biological target: T2, DOR (Homo sapiens, UniProt P41143); experiment: PDSP binding, primary screen
# T2 construct: purchased NIMH Psychoactive Drug Screening Program (PDSP), University of North Carolina-Chapel Hill
# Description: as §1, §2
# [9] = biological target: T3, 5-HT1B (Homo sapiens, UniProt P28222); experiment: PDSP binding, primary screen
# T3 construct: purchased NIMH Psychoactive Drug Screening Program (PDSP), University of North Carolina-Chapel Hill
# Description: as §1, §2
# [10] = biological target: T4, 5-ht5a (Homo sapiens, UniProt P47898); experiment: PDSP binding, primary screen
# T4 construct: purchased NIMH Psychoactive Drug Screening Program (PDSP), University of North Carolina-Chapel Hill
# T4 sequence (P47898 whole entry): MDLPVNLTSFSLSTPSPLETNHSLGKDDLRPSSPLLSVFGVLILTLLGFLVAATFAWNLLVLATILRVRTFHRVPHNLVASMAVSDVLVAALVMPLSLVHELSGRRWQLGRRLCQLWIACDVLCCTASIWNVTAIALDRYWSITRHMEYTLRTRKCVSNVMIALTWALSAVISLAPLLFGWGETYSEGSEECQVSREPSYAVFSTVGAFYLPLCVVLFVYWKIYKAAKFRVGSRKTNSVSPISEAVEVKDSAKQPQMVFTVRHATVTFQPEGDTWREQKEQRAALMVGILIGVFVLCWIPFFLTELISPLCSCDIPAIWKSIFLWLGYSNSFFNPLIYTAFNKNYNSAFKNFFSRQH
# Description: as §1, §2
# [11] = biological target: T5, Alpha2A (Homo sapiens, UniProt P08913); experiment: PDSP binding, primary screen
# T5 construct: purchased NIMH Psychoactive Drug Screening Program (PDSP), University of North Carolina-Chapel Hill
# T5 sequence (P08913 whole entry): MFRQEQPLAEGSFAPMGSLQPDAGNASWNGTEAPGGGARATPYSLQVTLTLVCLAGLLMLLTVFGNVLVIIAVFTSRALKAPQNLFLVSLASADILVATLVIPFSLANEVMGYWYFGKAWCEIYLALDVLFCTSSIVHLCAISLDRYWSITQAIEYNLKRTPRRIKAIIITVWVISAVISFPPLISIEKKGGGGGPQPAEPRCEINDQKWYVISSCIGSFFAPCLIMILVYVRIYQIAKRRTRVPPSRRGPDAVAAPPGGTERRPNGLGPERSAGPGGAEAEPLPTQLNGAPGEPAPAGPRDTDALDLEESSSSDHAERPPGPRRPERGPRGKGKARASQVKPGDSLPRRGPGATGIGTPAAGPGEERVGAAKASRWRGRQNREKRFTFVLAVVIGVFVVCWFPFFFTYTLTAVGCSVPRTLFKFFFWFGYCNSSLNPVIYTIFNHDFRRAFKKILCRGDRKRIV
# Description: as §1, §2
# [12] = biological target: T6, M3 (Homo sapiens, UniProt P20309); experiment: PDSP binding, primary screen
# T6 construct: purchased NIMH Psychoactive Drug Screening Program (PDSP), University of North Carolina-Chapel Hill
# T6 sequence (P20309 whole entry): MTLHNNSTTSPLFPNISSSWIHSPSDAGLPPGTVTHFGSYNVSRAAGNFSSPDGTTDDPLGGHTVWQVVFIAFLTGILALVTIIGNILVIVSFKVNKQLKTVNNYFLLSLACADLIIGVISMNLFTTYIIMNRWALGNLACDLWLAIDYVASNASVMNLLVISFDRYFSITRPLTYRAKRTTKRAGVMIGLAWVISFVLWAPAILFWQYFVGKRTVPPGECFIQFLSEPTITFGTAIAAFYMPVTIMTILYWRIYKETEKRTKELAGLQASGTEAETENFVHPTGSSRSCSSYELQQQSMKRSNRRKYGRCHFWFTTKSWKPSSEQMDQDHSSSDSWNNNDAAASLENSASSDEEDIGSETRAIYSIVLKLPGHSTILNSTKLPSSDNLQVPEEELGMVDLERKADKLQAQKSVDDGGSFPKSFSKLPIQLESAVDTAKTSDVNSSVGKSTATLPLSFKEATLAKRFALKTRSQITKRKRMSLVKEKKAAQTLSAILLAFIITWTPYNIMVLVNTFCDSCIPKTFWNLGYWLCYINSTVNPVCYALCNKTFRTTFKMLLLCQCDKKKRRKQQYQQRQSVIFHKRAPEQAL
# Description: as §1, §2
# [13] = biological target: T7, Alpha2C (Homo sapiens, UniProt P18825); experiment: PDSP binding, primary screen
# T7 construct: purchased NIMH Psychoactive Drug Screening Program (PDSP), University of North Carolina-Chapel Hill
# Description: as §1, §2
# [14] = biological target: T8, M5 (Homo sapiens, UniProt P08912); experiment: PDSP binding, primary screen
# T8 construct: purchased NIMH Psychoactive Drug Screening Program (PDSP), University of North Carolina-Chapel Hill
# Description: as §1, §2
# [15] = biological target: T9, 5-HT2B (Homo sapiens, UniProt P41595); experiment: PDSP binding, primary screen
# T9 construct: purchased NIMH Psychoactive Drug Screening Program (PDSP), University of North Carolina-Chapel Hill
# Description: as §1, §2
# [16] = biological target: T10, D5 (Homo sapiens, UniProt P21918); experiment: PDSP binding, primary screen
# T10 construct: purchased NIMH Psychoactive Drug Screening Program (PDSP), University of North Carolina-Chapel Hill
# Description: as §1, §2
# [17] = biological target: T11, D3 (Homo sapiens, UniProt P35462); experiment: PDSP binding, primary screen
# T11 construct: purchased NIMH Psychoactive Drug Screening Program (PDSP), University of North Carolina-Chapel Hill
# Description: as §1, §2
# [18] = biological target: T12, M2 (Homo sapiens, UniProt P08172); experiment: PDSP binding, primary screen
# T12 construct: purchased NIMH Psychoactive Drug Screening Program (PDSP), University of North Carolina-Chapel Hill
# T12 sequence (P08172 whole entry): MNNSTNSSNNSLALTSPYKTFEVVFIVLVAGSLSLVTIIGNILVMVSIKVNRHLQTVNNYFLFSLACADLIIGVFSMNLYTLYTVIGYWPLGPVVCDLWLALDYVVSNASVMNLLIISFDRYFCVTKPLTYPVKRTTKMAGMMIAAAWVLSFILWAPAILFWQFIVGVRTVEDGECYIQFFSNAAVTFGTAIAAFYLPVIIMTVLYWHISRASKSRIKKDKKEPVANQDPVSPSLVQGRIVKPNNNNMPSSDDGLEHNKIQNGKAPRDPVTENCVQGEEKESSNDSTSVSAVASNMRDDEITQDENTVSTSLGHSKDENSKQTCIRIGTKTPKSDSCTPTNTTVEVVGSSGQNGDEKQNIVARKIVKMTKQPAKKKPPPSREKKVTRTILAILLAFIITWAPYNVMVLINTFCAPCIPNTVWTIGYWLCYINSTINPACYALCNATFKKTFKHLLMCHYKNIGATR
# Description: as §1, §2
# [19] = biological target: T13, Alpha1D (Homo sapiens, UniProt P25100); experiment: PDSP binding, primary screen
# T13 construct: purchased NIMH Psychoactive Drug Screening Program (PDSP), University of North Carolina-Chapel Hill
# T13 sequence (P25100 whole entry): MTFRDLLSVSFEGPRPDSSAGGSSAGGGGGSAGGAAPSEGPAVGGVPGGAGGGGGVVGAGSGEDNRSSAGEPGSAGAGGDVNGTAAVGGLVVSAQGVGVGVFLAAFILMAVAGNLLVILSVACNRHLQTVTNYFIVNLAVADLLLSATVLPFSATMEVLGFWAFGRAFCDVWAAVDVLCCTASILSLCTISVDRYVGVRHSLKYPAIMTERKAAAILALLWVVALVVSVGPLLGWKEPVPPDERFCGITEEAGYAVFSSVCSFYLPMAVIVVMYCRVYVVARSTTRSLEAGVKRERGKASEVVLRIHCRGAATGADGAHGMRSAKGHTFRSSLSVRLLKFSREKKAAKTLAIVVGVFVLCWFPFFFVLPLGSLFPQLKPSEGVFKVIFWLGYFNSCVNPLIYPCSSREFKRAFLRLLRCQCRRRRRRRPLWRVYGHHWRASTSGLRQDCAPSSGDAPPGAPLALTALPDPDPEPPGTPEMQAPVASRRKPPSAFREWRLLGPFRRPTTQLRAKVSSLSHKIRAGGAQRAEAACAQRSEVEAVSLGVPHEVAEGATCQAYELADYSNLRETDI
# Description: as §1, §2
# [20] = biological target: T14, Alpha2B (Homo sapiens, UniProt P18089); experiment: PDSP binding, primary screen
# T14 construct: purchased NIMH Psychoactive Drug Screening Program (PDSP), University of North Carolina-Chapel Hill
# T14 sequence (P18089 whole entry): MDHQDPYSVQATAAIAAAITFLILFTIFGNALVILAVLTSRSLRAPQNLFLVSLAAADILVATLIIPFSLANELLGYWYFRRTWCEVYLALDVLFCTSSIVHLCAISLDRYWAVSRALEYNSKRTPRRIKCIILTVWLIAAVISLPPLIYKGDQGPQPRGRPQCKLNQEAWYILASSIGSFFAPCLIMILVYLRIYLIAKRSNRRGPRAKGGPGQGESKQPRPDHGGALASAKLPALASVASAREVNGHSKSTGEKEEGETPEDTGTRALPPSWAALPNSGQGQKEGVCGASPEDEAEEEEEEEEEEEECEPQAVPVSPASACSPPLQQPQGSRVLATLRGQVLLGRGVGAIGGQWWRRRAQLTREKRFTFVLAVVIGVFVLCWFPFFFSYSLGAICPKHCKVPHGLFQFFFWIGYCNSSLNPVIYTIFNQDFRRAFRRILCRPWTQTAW
# Description: as §1, §2
# [21] = biological target: T15, 5-HT1E (Homo sapiens, UniProt P28566); experiment: PDSP binding, primary screen
# T15 construct: purchased NIMH Psychoactive Drug Screening Program (PDSP), University of North Carolina-Chapel Hill
# T15 sequence (P28566 whole entry): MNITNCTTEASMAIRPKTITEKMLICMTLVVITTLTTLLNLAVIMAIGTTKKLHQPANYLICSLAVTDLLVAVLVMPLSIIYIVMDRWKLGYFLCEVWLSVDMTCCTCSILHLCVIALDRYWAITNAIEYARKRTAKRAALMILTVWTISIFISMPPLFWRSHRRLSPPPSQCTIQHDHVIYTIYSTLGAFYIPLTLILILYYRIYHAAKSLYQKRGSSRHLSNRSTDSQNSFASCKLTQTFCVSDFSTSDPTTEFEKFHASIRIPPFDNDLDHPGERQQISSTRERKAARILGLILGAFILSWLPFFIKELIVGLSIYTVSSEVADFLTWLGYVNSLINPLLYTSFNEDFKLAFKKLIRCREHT
# Description: as §1, §2
# [22] = biological target: T16, H2 (Homo sapiens, UniProt P25021); experiment: PDSP binding, primary screen
# T16 construct: purchased NIMH Psychoactive Drug Screening Program (PDSP), University of North Carolina-Chapel Hill
# T16 sequence (P25021 whole entry): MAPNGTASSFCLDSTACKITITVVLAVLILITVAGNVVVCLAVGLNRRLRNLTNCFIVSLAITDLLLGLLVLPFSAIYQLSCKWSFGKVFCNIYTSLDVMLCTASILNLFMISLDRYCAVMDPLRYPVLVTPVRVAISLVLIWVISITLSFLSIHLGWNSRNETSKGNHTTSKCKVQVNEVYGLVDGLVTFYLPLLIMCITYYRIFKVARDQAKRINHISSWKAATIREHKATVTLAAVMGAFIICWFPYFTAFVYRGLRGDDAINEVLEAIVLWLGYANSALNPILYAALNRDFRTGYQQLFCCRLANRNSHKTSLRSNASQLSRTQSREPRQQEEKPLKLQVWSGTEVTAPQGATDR
# Description: as §1, §2
# [23] = biological target: T17, D2 (Homo sapiens, UniProt P14416); experiment: PDSP binding, primary screen
# T17 construct: purchased NIMH Psychoactive Drug Screening Program (PDSP), University of North Carolina-Chapel Hill
# T17 sequence (P14416 whole entry): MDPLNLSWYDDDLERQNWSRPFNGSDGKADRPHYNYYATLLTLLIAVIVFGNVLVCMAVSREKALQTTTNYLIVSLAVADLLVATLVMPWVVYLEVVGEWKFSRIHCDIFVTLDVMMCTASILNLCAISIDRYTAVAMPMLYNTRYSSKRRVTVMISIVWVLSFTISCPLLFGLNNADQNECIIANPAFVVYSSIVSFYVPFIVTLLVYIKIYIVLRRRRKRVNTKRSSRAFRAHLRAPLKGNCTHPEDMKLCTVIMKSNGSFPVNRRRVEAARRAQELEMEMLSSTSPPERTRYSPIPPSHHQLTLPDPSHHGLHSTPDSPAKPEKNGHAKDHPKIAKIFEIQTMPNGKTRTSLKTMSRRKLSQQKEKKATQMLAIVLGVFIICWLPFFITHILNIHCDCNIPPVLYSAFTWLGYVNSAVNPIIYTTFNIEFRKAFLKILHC
# Description: as §1, §2
# [24] = biological target: T18, D1 (Homo sapiens, UniProt P21728); experiment: PDSP binding, primary screen
# T18 construct: purchased NIMH Psychoactive Drug Screening Program (PDSP), University of North Carolina-Chapel Hill
# Description: as §1, §2
# [25] = biological target: T19, D4 (Homo sapiens, UniProt P21917); experiment: PDSP binding, primary screen
# T19 construct: purchased NIMH Psychoactive Drug Screening Program (PDSP), University of North Carolina-Chapel Hill
# T19 sequence (P21917 whole entry): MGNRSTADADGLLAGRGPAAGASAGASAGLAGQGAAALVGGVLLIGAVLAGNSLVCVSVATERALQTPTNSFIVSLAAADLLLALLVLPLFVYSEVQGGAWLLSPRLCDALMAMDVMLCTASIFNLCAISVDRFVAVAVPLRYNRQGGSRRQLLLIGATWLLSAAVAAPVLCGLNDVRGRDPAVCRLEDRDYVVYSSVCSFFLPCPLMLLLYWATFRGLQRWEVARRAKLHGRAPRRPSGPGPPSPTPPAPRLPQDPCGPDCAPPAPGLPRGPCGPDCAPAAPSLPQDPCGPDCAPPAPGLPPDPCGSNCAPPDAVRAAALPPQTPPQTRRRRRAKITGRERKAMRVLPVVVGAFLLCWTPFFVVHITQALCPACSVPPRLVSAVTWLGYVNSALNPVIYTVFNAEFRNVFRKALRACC
# Description: as §1, §2
# [26] = biological target: T20, M4 (Homo sapiens, UniProt P08173); experiment: PDSP binding, primary screen
# T20 construct: purchased NIMH Psychoactive Drug Screening Program (PDSP), University of North Carolina-Chapel Hill
# T20 sequence (P08173 whole entry): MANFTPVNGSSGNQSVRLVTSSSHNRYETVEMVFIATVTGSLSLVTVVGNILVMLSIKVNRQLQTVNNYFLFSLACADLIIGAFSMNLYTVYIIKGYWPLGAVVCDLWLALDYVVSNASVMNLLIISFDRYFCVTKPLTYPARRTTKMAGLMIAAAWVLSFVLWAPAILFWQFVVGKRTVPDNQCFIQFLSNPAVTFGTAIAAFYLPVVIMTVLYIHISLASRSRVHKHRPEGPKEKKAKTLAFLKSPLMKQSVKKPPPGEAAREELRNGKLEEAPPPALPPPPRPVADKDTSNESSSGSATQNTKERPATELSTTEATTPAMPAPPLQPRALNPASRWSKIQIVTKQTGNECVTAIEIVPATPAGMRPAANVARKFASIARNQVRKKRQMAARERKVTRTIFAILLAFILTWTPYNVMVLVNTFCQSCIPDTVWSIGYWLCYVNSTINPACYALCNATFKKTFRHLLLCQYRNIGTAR
# Description: as §1, §2
# [27] = biological target: T21, 5-HT1A (Homo sapiens, UniProt P08908); experiment: PDSP binding, primary screen
# T21 construct: purchased NIMH Psychoactive Drug Screening Program (PDSP), University of North Carolina-Chapel Hill
# Description: as §1, §2
# [28] = tested on: VTA dopamine neurons; experiment: Electrophysiology: spontaneous firing of VTA dopamine neurons in slices; format: cell-based, C57Bl/6J mice; settings: 100 μM, bath applied 5 min; percentage of baseline
# Description: All electrophysiological recordings were performed in slice preparations from C57Bl/6J mice (P21-P30). Briefly, mice were anaesthetized with isoflurane and transcardially perfused with an ice-cold sucrose solution containing (in mM): 50 sucrose, 26.2 NaHCO3, 1.25 glucose, 4.9 MgCl2, 3 kynurenic acid, 0.1 CaCl2, and 1.32 ascorbic acid in bicarbonate-buffered solution (aCSF, described below). Mice were then decapitated and brains were extracted. […] Cells were visualized on an upright microscope using “Dodt-type” gradient contrast infrared optics ([Dodt et al., 2002]) and whole-cell recordings were made using a MultiClamp 700B amplifier (Axon Instruments, Union City, CA, United States). Recording electrodes (3–5 MΩ) were filled with (in mM): 136 potassium-D-gluconate, 4 MgCl2, 1.1 HEPES, 5, EGTA, 10 sodium creatine phosphate, 3.4 Mg-ATP, and 0.1 Na2GTP. […] Spontaneous firing activity was recorded in current-clamp mode. […] Firing data for all neurons was analyzed with the MiniAnalysis program (Synaptosoft) using the same criteria. Drug-induced changes in firing are expressed as a percentage of baseline. Drug effects were calculated by comparing the response during the baseline/pre-drug period to the response 5 min after onset of drug administration. […] We therefore assessed the effects of compound 22 on firing rate of dopamine neurons. […]
structure (smiles),measurement,setting,value
Clc1ccc(CNCc2ccc(Cn3cncn3)cc2)c(Cl)c1 [compound 22],% Inhibition,[1],13.4%
same,% Inhibition,[2],78.4%
same,% Inhibition,[3],1.1%
same,% Inhibition,[4],5.2%
same,% Inhibition,[5],-1.7%
same,% Inhibition,[6],23.1%
same,inhibition at 10 µM,[7],6%
same,inhibition at 10 µM,[8],6.2%
same,inhibition at 10 µM,[9],-13.5%
same,inhibition at 10 µM,[10],15.3%
same,inhibition at 10 µM,[11],32.4%
same,inhibition at 10 µM,[12],15.5%
same,inhibition at 10 µM,[13],-4.3%
same,inhibition at 10 µM,[14],1.4%
same,inhibition at 10 µM,[15],6.7%
same,inhibition at 10 µM,[16],-6.8%
same,inhibition at 10 µM,[17],9.4%
same,inhibition at 10 µM,[18],7.1%
same,inhibition at 10 µM,[19],11.6%
same,inhibition at 10 µM,[20],22.6%
same,inhibition at 10 µM,[21],-1.7%
same,inhibition at 10 µM,[22],45.2%
same,inhibition at 10 µM,[23],36.7%
same,inhibition at 10 µM,[24],16.1%
same,inhibition at 10 µM,[25],17.6%
same,inhibition at 10 µM,[26],15.9%
same,inhibition at 10 µM,[27],9.3%
same,increase in firing rate of dopaminergic neurons from VTA,[28],88%
